Measurements published in patent publication US4971965A, “Antibiotics TAN-1057” (Takeda Chemical Industries, Ltd., priority 1988, dated 1990).
Where a name gives a salt, the structure may show the parent alone.

Experiments:
Acidity or basicity = format: physicochemical
Solubility = format: physicochemical
[1] = system: Staphylococcus aureus TST-75; assay: Antibacterial activity against clinically isolated S. aureus (agar dilution MIC, Table 2); format: cell-based; conditions: strain TST-75; agar dilution; Mueller Hinton medium; 10^6 CFU/ml
Protocol: (§1) DMPPC: Methicillin, KM: Kanamycin, GM: Gentamycin, EM: Erythromycin (Note
(§2) Determined by the agar dilution method. Medium: Mueller Hinton medium
(§3) (Difco, USA) Inoculum Size: 10^6 CFU/ml, 37° C.

[2] = system: Staphylococcus aureus N121; assay: as above; format: cell-based; conditions: strain N121; agar dilution; Mueller Hinton medium; 10^6 CFU/ml
Protocol: as §1, §2, §3

[3] = system: Staphylococcus aureus N83; assay: as above; format: cell-based; conditions: strain N83; agar dilution; Mueller Hinton medium; 10^6 CFU/ml
Protocol: as §1, §2, §3

[4] = system: Staphylococcus aureus N326; assay: as above; format: cell-based; conditions: strain N326; agar dilution; Mueller Hinton medium; 10^6 CFU/ml
Protocol: as §1, §2, §3

[5] = system: Staphylococcus aureus N247-16; assay: as above; format: cell-based; conditions: strain N247-16; agar dilution; Mueller Hinton medium; 10^6 CFU/ml
Protocol: as §1, §2, §3

[6] = system: Staphylococcus aureus N28; assay: as above; format: cell-based; conditions: strain N28; agar dilution; Mueller Hinton medium; 10^6 CFU/ml
Protocol: as §1, §2, §3

[7] = system: Staphylococcus aureus N64; assay: as above; format: cell-based; conditions: strain N64; agar dilution; Mueller Hinton medium; 10^6 CFU/ml
Protocol: as §1, §2, §3

[8] = system: Staphylococcus aureus N91; assay: as above; format: cell-based; conditions: strain N91; agar dilution; Mueller Hinton medium; 10^6 CFU/ml
Protocol: as §1, §2, §3

[9] = system: Staphylococcus aureus N247-21; assay: as above; format: cell-based; conditions: strain N247-21; agar dilution; Mueller Hinton medium; 10^6 CFU/ml
Protocol: as §1, §2, §3

[10] = system: Staphylococcus aureus N247; assay: as above; format: cell-based; conditions: strain N247; agar dilution; Mueller Hinton medium; 10^6 CFU/ml
Protocol: as §1, §2, §3

[11] = system: Staphylococcus aureus N51; assay: as above; format: cell-based; conditions: strain N51; agar dilution; Mueller Hinton medium; 10^6 CFU/ml
Protocol: as §1, §2, §3

Staphylococcus aureus C3 = assay: as above; format: cell-based; conditions: strain C3; agar dilution; Mueller Hinton medium; 10^6 CFU/ml
Protocol: as §1, §2, §3

[12] = system: Staphylococcus aureus FDA 209P; assay: as above; format: cell-based; conditions: strain FDA 209P; agar dilution; Mueller Hinton medium; 10^6 CFU/ml
Protocol: as §1, §2, §3

[13] = system: Staphylococcus aureus N235; assay: as above; format: cell-based; conditions: strain N235; agar dilution; Mueller Hinton medium; 10^6 CFU/ml
Protocol: as §1, §2, §3

[14] = system: Staphylococcus aureus C10; assay: as above; format: cell-based; conditions: strain C10; agar dilution; Mueller Hinton medium; 10^6 CFU/ml
Protocol: as §1, §2, §3

[15] = system: Staphylococcus aureus N267; assay: as above; format: cell-based; conditions: strain N267; agar dilution; Mueller Hinton medium; 10^6 CFU/ml
Protocol: as §1, §2, §3

[16] = system: Staphylococcus aureus N176-6; assay: as above; format: cell-based; conditions: strain N176-6; agar dilution; Mueller Hinton medium; 10^6 CFU/ml
Protocol: as §1, §2, §3

[17] = system: Staphylococcus aureus N237; assay: as above; format: cell-based; conditions: strain N237; agar dilution; Mueller Hinton medium; 10^6 CFU/ml
Protocol: as §1, §2, §3

[18] = system: Staphylococcus aureus N62; assay: as above; format: cell-based; conditions: strain N62; agar dilution; Mueller Hinton medium; 10^6 CFU/ml
Protocol: as §1, §2, §3

Staphylococcus aureus C4 = assay: as above; format: cell-based; conditions: strain C4; agar dilution; Mueller Hinton medium; 10^6 CFU/ml
Protocol: as §1, §2, §3

[19] = system: Staphylococcus aureus N262; assay: as above; format: cell-based; conditions: strain N262; agar dilution; Mueller Hinton medium; 10^6 CFU/ml
Protocol: as §1, §2, §3

[20] = system: Staphylococcus aureus TS-65; assay: as above; format: cell-based; conditions: strain TS-65; agar dilution; Mueller Hinton medium; 10^6 CFU/ml
Protocol: as §1, §2, §3

[21] = system: Staphylococcus aureus N176; assay: as above; format: cell-based; conditions: strain N176; agar dilution; Mueller Hinton medium; 10^6 CFU/ml
Protocol: as §1, §2, §3

Staphylococcus aureus N8 = assay: as above; format: cell-based; conditions: strain N8; agar dilution; Mueller Hinton medium; 10^6 CFU/ml
Protocol: as §1, §2, §3

Staphylococcus aureus C7 = assay: as above; format: cell-based; conditions: strain C7; agar dilution; Mueller Hinton medium; 10^6 CFU/ml
Protocol: as §1, §2, §3

[22] = system: Staphylococcus aureus N176-3; assay: as above; format: cell-based; conditions: strain N176-3; agar dilution; Mueller Hinton medium; 10^6 CFU/ml
Protocol: as §1, §2, §3

[23] = system: Staphylococcus aureus N129; assay: as above; format: cell-based; conditions: strain N129; agar dilution; Mueller Hinton medium; 10^6 CFU/ml
Protocol: as §1, §2, §3

With `CN(C(=O)C[C@@H](N)CCCNC(=N)N)[C@H]1CNC(NC(N)=O)=NC1=O` [TAN-1057A trihydrochloride] as the compound, how does the Acidity or basicity (Acidity or basicity) read?
Its Acidity or basicity is “neutral”.

And the Solubility (Solubility; acetone)?
The Solubility was “Sparingly soluble”.

And the Solubility (Solubility; diethyl ether)?
The Solubility was “Sparingly soluble”.

And the Solubility (Solubility; dimethylsulfoxide)?
The Solubility was “Soluble”.

What about the Solubility (Solubility; ethyl acetate) of the same compound?
The Solubility was “Sparingly soluble”.

And the Solubility (Solubility; methanol)?
Its Solubility is “Soluble”.

What about the Solubility (Solubility; water) of the same compound?
The Solubility was “Readily soluble”.

With `CN(C(=O)C[C@@H](N)CCCNC(=N)N)[C@@H]1CNC(NC(N)=O)=NC1=O` [TAN-1057B dihydrochloride] as the compound, how does the Acidity or basicity (Acidity or basicity) read?
Its Acidity or basicity is “neutral”.

What about the Solubility (Solubility; acetone) of the same compound?
The Solubility was “Sparingly soluble”.

And the Solubility (Solubility; diethyl ether)?
The Solubility was “Sparingly soluble”.

And the Solubility (Solubility; dimethylsulfoxide)?
Its Solubility is “Soluble”.

And the Solubility (Solubility; ethyl acetate)?
The Solubility was “Sparingly soluble”.

And the Solubility (Solubility; methanol)?
Its Solubility is “Soluble”.

What about the Solubility (Solubility; water) of the same compound?
Its Solubility is “Readily soluble”.

With Gentamycin [GM] as the compound, how does the MIC [1] read?
Its MIC is over 100 µg/mL.

And the MIC [2]?
Its MIC is over 100 µg/mL.

And the MIC [3]?
Its MIC is at most 0.20 µg/mL.

What about the MIC [4] of the same compound?
The MIC was over 100 µg/mL.

What about the MIC [5] of the same compound?
Its MIC is 100 µg/mL.

And the MIC [6]?
Its MIC is 0.39 µg/mL.

And the MIC [7]?
Its MIC is 0.78 µg/mL.

And the MIC [8]?
Its MIC is 0.39 µg/mL.

What about the MIC [9] of the same compound?
The MIC was 50 µg/mL.

What about the MIC [10] of the same compound?
Its MIC is 50 µg/mL.

What about the MIC [11] of the same compound?
The MIC was 0.39 µg/mL.

And the MIC (Staphylococcus aureus C3)?
Its MIC is 100 µg/mL.

And the MIC [12]?
The MIC was at most 0.20 µg/mL.

What about the MIC [13] of the same compound?
Its MIC is over 100 µg/mL.

And the MIC [14]?
The MIC was over 100 µg/mL.

And the MIC [15]?
Its MIC is 100 µg/mL.

What about the MIC [16] of the same compound?
Its MIC is 0.39 µg/mL.

What about the MIC [17] of the same compound?
Its MIC is over 100 µg/mL.

What about the MIC [18] of the same compound?
The MIC was 3.13 µg/mL.

And the MIC (Staphylococcus aureus C4)?
The MIC was 50 µg/mL.

What about the MIC [19] of the same compound?
The MIC was 50 µg/mL.

And the MIC [20]?
Its MIC is 100 µg/mL.

And the MIC [21]?
The MIC was 0.39 µg/mL.

And the MIC (Staphylococcus aureus N8)?
Its MIC is at most 0.20 µg/mL.

And the MIC (Staphylococcus aureus C7)?
Its MIC is over 100 µg/mL.

What about the MIC [22] of the same compound?
The MIC was 0.39 µg/mL.

And the MIC [23]?
The MIC was 50 µg/mL.
